The target of one assay is T1, substance P receptor (Cavia porcellus, UniProt P30547).
T1 construct: A preparation of a crude lung membrane sample was prepared; from tissue; host or cells: guinea-pig lung (crude membrane sample)
The experiment in a line: Test for binding to guinea-pig substance P receptor (crude lung membrane sample). Conditions: crude guinea-pig lung membrane sample, [3H]substance P; Ki from IC50 and Kd; read-out: Ki. How it is done: A preparation of a crude lung membrane sample was prepared, and a test for binding of a test substance to the sample was performed according to the method described in EP0336230A2.
The binding effect of the test substance to a substance P receptor was calculated as an affinity (Ki) of the test substance for the substance P receptor from a 50% binding concentration (IC50) and an affinity (Kd) of [^3H]substance P for the substance P receptor.

The next assay deals with T2, human NK2 receptor (Homo sapiens, UniProt P21452).
T2 construct: expressed in transfected cells; host or cells: COS cells
T2 sequence (P21452 1-398): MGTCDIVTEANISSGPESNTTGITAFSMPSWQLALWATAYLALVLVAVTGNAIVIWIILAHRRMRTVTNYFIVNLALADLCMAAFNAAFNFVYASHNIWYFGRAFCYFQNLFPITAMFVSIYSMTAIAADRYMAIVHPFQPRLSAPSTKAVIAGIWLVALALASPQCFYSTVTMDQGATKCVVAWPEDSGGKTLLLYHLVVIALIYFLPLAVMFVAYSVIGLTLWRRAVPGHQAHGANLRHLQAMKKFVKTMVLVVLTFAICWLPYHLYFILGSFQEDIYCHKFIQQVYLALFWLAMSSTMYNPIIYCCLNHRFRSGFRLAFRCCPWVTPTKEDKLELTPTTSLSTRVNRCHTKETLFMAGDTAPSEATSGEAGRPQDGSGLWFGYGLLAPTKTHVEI
The assay is described as follows: Test for binding to human NK2 receptor. A digest of the protocol:
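Radioligand binding with [^3H]SR 48968 on cryopreserved COS cells expressing human NK2 receptor (5.0×10^5 cells/mL), in 50 mM Tris-HCl pH 7.4 with BSA, MnCl2 and protease inhibitors. Bound label collected on PEI-treated GF/B filters, counted by liquid scintillation; Ki derived from IC50 and radioligand Kd.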

The target of the next assay is T3, neurokinin NK1 receptor (Cavia porcellus, UniProt P30547).
T3 construct: Using healthy guinea pigs (body weight, 350 to 550 g; Hartley male guinea pigs); from tissue; host or cells: live anaesthetised Hartley male guinea pigs (airway, in vivo)
The experiment in a line: Effect of suppressing substance P-induced airway contraction (in vivo, intratracheal administration). Conditions: guinea pig; guinea pigs, intratracheal administration 60 minutes before 20 μg/kg i.v. SP; AUC of increase in airway pressure over 10 minutes; read-out: ID50 (the source's name). Further details: species or system guinea pig. How it is done: Using healthy guinea pigs (body weight, 350 to 550 g; Hartley male guinea pigs), the effect of suppressing airway contraction induced by substance P (SP), which is an NK1 receptor agonist, was examined by a modified method of Konzett-Roessler (Naunyn-Schmiedebergs Arch. Exp. Pathol. Pharmakol. 195, 71 [1940]) using airway pressure as an indicator.
A tracheal cannula and a venous cannula were attached to a guinea pig anesthetized with pentobarbital (50 mg/mL solution, 0.40 to 0.50 mL/body, subcutaneous administration). An arterial cannula filled with heparin-containing physiological saline (100 U/mL) was further attached, and blood pressure and heart rate were monitored via an amplifier and an instantaneous heart rate meter. Subsequently, gallamine (20 mg/body, intravenous administration) was administered to terminate spontaneous breathing, and then 10 mL/kg of positive pressure breathing (Ugo-Basile Biological Research Apparatus, Cat. No. 7025) was rapidly performed at 60 times/min. The airway pressure during artificial breathing was detected with a pressure transducer (TP-200T or TP-400T; Nihon Kohden Corporation) attached to a side branch of the tracheal cannula, amplified (AP-601G; Nihon Kohden Corporation), and recorded in a recorder. After the airway pressure, blood pressure, and heart rate were stabilized, 20 μg/kg of SP was intravenously administered from the venous cannula to induce airway contraction, and the airway pressure was measured for the following 10 minutes.
The test substance was dissolved in a 5% glucose solution, a 0.5 mL/kg solution was intratracheally administered with an intratracheal administration apparatus (model 1A-1B; Penn-Century, Inc.) 60 minutes before stimulation with SP.
The AUC of increase in the airway pressure over 10 minutes after administration of SP was determined as the intensity of SP-induced airway contraction and calculated as an ID50 value from the inhibition rate based on the value of the control group (5% glucose solution intratracheal administration group).

Where a name gives a salt, the structure may show the parent alone. Read-outs that look alike come from different tables or passages of the source.

The Ki is a measure of affinity in units of concentration, obtained from inhibition or displacement.

T3 sequence (P30547 whole entry): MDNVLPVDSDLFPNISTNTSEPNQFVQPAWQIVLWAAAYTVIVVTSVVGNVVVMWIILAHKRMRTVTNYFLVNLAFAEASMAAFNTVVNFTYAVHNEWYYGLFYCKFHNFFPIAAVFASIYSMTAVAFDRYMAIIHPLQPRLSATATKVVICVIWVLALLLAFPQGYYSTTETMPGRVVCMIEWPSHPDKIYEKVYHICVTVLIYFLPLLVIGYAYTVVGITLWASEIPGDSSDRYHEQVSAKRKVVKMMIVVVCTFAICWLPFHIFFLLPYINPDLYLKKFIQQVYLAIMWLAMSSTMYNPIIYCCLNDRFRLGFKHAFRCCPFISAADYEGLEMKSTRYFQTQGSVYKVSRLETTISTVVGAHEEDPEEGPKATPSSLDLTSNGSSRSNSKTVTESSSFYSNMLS
T1 sequence (P30547 whole entry): as above

As to `CN(CCN1CCC(OC(=O)Nc2ccccc2-c2ccccc2)CC1)C(=O)CCCCCN(C)c1ccc(C(=O)N(C)CCCN(C)C(=O)CO[C@H]2Cc3ccccc3C23CCN(CC[C@@]2(c4ccc(F)cc4)CN(C(=O)c4cc(C(F)(F)F)cc(C(F)(F)F)c4)CO2)CC3)cc1` [Example 76, 1-{2-[{6-[{4-[{3-[({[(2S)-1′-{2-[(5R)-3-[3,5-Bis(trifluoromethyl)benzoyl]-5-(4-fluorophenyl)-1,3-oxazolidin-5-yl]ethyl}-2,3-dihydrospiro[indene-1,4′-piperidin]-2-yl]oxy}acetyl)(methyl)amino]propyl}(methyl)carbamoyl]phenyl}(methyl)amino]hexanoyl}(methyl)amino]ethyl}piperidin-4-yl biphenyl-2-ylcarbamate], the inhibitory constant (Ki) turned out to be 2.7 nM on substance P receptor; 1 nM at human NK2 receptor (COS cells expressing human NK2 receptor, [3H]SR 48968 1 nM, Ki from IC50 and Kd, read-out: Ki). In addition, on neurokinin NK1 receptor, the ED50 amounted to 0.0622 mg/kg.
As for `CN(CCN1CCC(OC(=O)Nc2ccccc2-c2ccccc2)CC1)C(=O)CCCCCNc1ccc(C(=O)N(CCCN(C)C(=O)CO[C@H]2Cc3ccccc3C23CCN(CC[C@@]2(c4ccc(F)cc4)CN(C(=O)c4cc(C(F)(F)F)cc(C(F)(F)F)c4)CO2)CC3)C2CC2)cc1` [Example 25, 1-(2-{[6-({4-[{3-[({[(2S)-1′-{2-[(5R)-3-[3,5-Bis(trifluoromethyl)benzoyl]-5-(4-fluorophenyl)-1,3-oxazolidin-5-yl]ethyl}-2,3-dihydrospiro[indene-1,4′-piperidin]-2-yl]oxy}acetyl)(methyl)amino]propyl}(cyclopropyl)carbamoyl]phenyl}amino)hexanoyl](methyl)amino}ethyl)piperidin-4-yl biphenyl-2-ylcarbamate trihydrochloride], the inhibition constant (Ki) on substance P receptor is 1.7 nM; on human NK2 receptor, 0.77 nM. Moreover, the ED50 on neurokinin NK1 receptor was determined as 0.0437 mg/kg.
In the same order, the values of `CN(CCN1CCC(OC(=O)Nc2ccccc2-c2ccccc2)CC1)C(=O)CCCNc1ccc(C(=O)N(C)CCCN(C)C(=O)CO[C@H]2Cc3ccccc3C23CCN(CC[C@@]2(c4ccc(F)cc4)CN(C(=O)c4cc(C(F)(F)F)cc(C(F)(F)F)c4)CO2)CC3)cc1` [Example 34, 1-(2-{[4-({4-[{3-[({[(2S)-1′-{2-[(5R)-3-[3,5-Bis(trifluoromethyl)benzoyl]-5-(4-fluorophenyl)-1,3-oxazolidin-5-yl]ethyl}-2,3-dihydrospiro[indene-1,4′-piperidin]-2-yl]oxy}acetyl)(methyl)amino]propyl}(methyl)carbamoyl]phenyl}amino)butanoyl](methyl)amino}ethyl)piperidin-4-yl biphenyl-2-ylcarbamate trihydrochloride] are 1 nM, 0.54 nM and 0.0308 mg/kg.
In the same order, the values of `Cc1cc(NCCCCCC(=O)N(C)CCN2CCC(OC(=O)Nc3ccccc3-c3ccccc3)CC2)ccc1C(=O)N(C)CCCN(C)C(=O)CO[C@H]1Cc2ccccc2C12CCN(CC[C@@]1(c3ccc(F)cc3)CN(C(=O)c3cc(C(F)(F)F)cc(C(F)(F)F)c3)CO1)CC2` [Example 18, 1-(2-{[6-({4-[{3-[({[(2S)-1′-{2-[(5R)-3-[3,5-Bis(trifluoromethyl)benzoyl]-5-(4-fluorophenyl)-1,3-oxazolidin-5-yl]ethyl}-2,3-dihydrospiro[indene-1,4′-piperidin]-2-yl]oxy}acetyl)(methyl)amino]propyl}(methyl)carbamoyl]-3-methylphenyl}amino)hexanoyl](methyl)amino}ethyl)piperidin-4-yl biphenyl-2-ylcarbamate trihydrochloride] are 1.8 nM, 0.42 nM and 0.0614 mg/kg.

The values are drawn from patent US8476253B2, “Amide derivative” (Daiichi Sankyo Company, Limited, priority 2009, dated 2013).
